Tested on: moderate-to-severe chronic spontaneous urticaria (CSU)
Assay: Phase 2 CSU study: urticaria activity score over 7 days (UAS7)
Type: in vivo, human
Conditions: ITT
Text: The study comprises a 12 week, randomized, double-blind, placebo-controlled, multi-center, dose-ranging efficacy and safety phase, followed by a 40 week open label extension (OLE) phase (see FIG. 1). The study consists of three phases and an optional OLE phase. […] Clinically, CSU is characterized by the spontaneous and recurrent appearance of pruritic hives. The proposed primary endpoints were the UAS7 at Week 12 in EU and EU reference countries and the ISS7 in the US. Regardless of where a participant was from, all assessments were the same. The UAS7 score is a composite score containing both the HSS7 and the ISS7. This allowed a global assessment of the two key components of urticaria: hives and itch. […] The UAS is a validated PRO measure. […] The daily UAS scores range from 0 to 6 point/day. […] Patients were to complete the UAS using the e-diary. […] The following secondary endpoints were to be analyzed using the same approach as for the primary endpoint: • Change from baseline in UAS7 at Week 4 • Change from baseline in UAS7 at Week 12 (for US and US reference countries) • Change from baseline in ISS7 at Week 12 (except US and US reference countries) • Change from baseline in HSS7 at Week 12 The following responder secondary endpoints were to be analyzed using the Cochran-Mantel-Haenszel test adjusted by region: • Proportion of participants with UAS7<6 at Week 12 • Proportion of participants with UAS7=0 at Week 12 Participants who received selected prohibited medications and/or rescue medications were to be considered as non-responders for time points after the medication usage. For other participants, all available data including those collected during the off-treatment period were to be used to determine the responder/non-responder status. Missing data were to be considered as non-responders.

## CC(C)(C=C(C#N)C(=O)N1CCC[C@@H](n2nc(-c3ccc(Oc4ccccc4)cc3F)c3c(N)ncnc32)C1)N1CCN(C2COC2)CC1 [rilzabrutinib, (R)-2-[3-[4-amino-3-(2-fluoro-4-phenoxy-phenyl)pyrazolo[3,4-d]pyrimidin-1-yl]piperidine-1-carbonyl]-4-methyl-4-[4-(oxetan-3-yl)piperazin-1-yl]pent-2-enenitrile]
400 mg BID, Week 11
  Non-responder n (%), UAS7 ≤6: 28 (68.3) n (%)
  OR for rilzabrutinib vs. placebo, UAS7 = 0: 2.892
  OR for rilzabrutinib vs. placebo, UAS7 ≤6: 1.991
  RRD (%) for rilzabrutinib vs. placebo, UAS7 = 0: 8.2 %
  RRD (%) for rilzabrutinib vs. placebo, UAS7 ≤6: 11.8 %
  Responder n (%), UAS7 = 0: 6 (14.6) n (%)
  Responder n (%), UAS7 ≤6: 13 (31.7) n (%)
400 mg BID, Week 12
  Imputed non-responder n (%), UAS7 = 0: 14 (34.1) n (%)
  Imputed non-responder n (%), UAS7 ≤6: 14 (34.1) n (%)
  Non-responder n (%), UAS7 = 0: 33 (80.5) n (%)
  Non-responder n (%), UAS7 ≤6: 31 (75.6) n (%)
  OR for rilzabrutinib vs. placebo, UAS7 = 0: 1.511
  OR for rilzabrutinib vs. placebo, UAS7 ≤6: 2.067
  RRD (%) for rilzabrutinib vs. placebo, UAS7 ≤6: 10.0 %
  Responder n (%), UAS7 = 0: 8 (19.5) n (%)
  Responder n (%), UAS7 ≤6: 10 (24.4) n (%)
400 mg QPM, Week 1
  Imputed non-responder n (%), UAS7 = 0: 0 n (%)
  Imputed non-responder n (%), UAS7 ≤6: 0 n (%)
  Non-responder n (%), UAS7 = 0: 38 (100) n (%)
  Non-responder n (%), UAS7 ≤6: 36 (94.7) n (%)
  OR for rilzabrutinib vs. placebo, UAS7 = 0: 0.000 (NE,
  OR for rilzabrutinib vs. placebo, UAS7 ≤6: 1.099
  RRD (%) for rilzabrutinib vs. placebo, UAS7 = 0: −2.6 %
  RRD (%) for rilzabrutinib vs. placebo, UAS7 ≤6: 0.4 %
  Responder n (%), UAS7 = 0: 0 n (%)
  Responder n (%), UAS7 ≤6: 2 (5.3) n (%)
400 mg QPM, Week 2
  Imputed non-responder n (%), UAS7 = 0: 0 n (%)
  Imputed non-responder n (%), UAS7 ≤6: 0 n (%)
  Non-responder n (%), UAS7 = 0: 38 (100) n (%)
  Non-responder n (%), UAS7 ≤6: 37 (97.4) n (%)
  OR for rilzabrutinib vs. placebo, UAS7 = 0: 0.000 (NE,
  OR for rilzabrutinib vs. placebo, UAS7 ≤6: 0.517
  RRD (%) for rilzabrutinib vs. placebo, UAS7 = 0: −2.6 %
  RRD (%) for rilzabrutinib vs. placebo, UAS7 ≤6: −2.3 %
  Responder n (%), UAS7 = 0: 0 n (%)
  Responder n (%), UAS7 ≤6: 1 (2.6) n (%)
400 mg QPM, Week 3
  Imputed non-responder n (%), UAS7 = 0: 0 n (%)
  Imputed non-responder n (%), UAS7 ≤6: 0 n (%)
  Non-responder n (%), UAS7 = 0: 38 (100) n (%)
  Non-responder n (%), UAS7 ≤6: 36 (94.7) n (%)
  OR for rilzabrutinib vs. placebo, UAS7 = 0: 0.000 (NE,
  OR for rilzabrutinib vs. placebo, UAS7 ≤6: 0.553
  RRD (%) for rilzabrutinib vs. placebo, UAS7 = 0: −2.6 %
  RRD (%) for rilzabrutinib vs. placebo, UAS7 ≤6: −3.9%
  Responder n (%), UAS7 = 0: 0 n (%)
  Responder n (%), UAS7 ≤6: 2 (5.3) n (%)
400 mg QPM, Week 4
  Imputed non-responder n (%), UAS7 = 0: 1 (2.6) n (%)
  Imputed non-responder n (%), UAS7 ≤6: 1 (2.6) n (%)
  Non-responder n (%), UAS7 = 0: 38 (100) n (%)
  Non-responder n (%), UAS7 ≤6: 36 (94.7) n (%)
  OR for rilzabrutinib vs. placebo, UAS7 = 0: 0.000 (NE,
  OR for rilzabrutinib vs. placebo, UAS7 ≤6: 0.432
  RRD (%) for rilzabrutinib vs. placebo, UAS7 = 0: −4.8 %
  RRD (%) for rilzabrutinib vs. placebo, UAS7 ≤6: −6.0%
  Responder n (%), UAS7 = 0: 0 n (%)
  Responder n (%), UAS7 ≤6: 2 (5.3) n (%)
400 mg QPM, Week 5
  Imputed non-responder n (%), UAS7 = 0: 2 (5.3) n (%)
  Imputed non-responder n (%), UAS7 ≤6: 2 (5.3) n (%)
  Non-responder n (%), UAS7 = 0: 37 (97.4) n (%)
  Non-responder n (%), UAS7 ≤6: 36 (94.7) n (%)
  OR for rilzabrutinib vs. placebo, UAS7 = 0: 1.000
  OR for rilzabrutinib vs. placebo, UAS7 ≤6: 1.065
  RRD (%) for rilzabrutinib vs. placebo, UAS7 = 0: 0.0 %
  RRD (%) for rilzabrutinib vs. placebo, UAS7 ≤6: 0.3 %
  Responder n (%), UAS7 = 0: 1 (2.6) n (%)
  Responder n (%), UAS7 ≤6: 2 (5.3) n (%)

— US20260256792A1, “TREATMENT OF CHRONIC SPONTANEOUS URTICARIA BY ADMINISTERING (R)-2-[3-[4-AMINO-3-(2-FLUORO-4-PHENOXY-PHENYL)PYRAZOLO[3,4-D]PYRIMIDIN-1-YL]PIPERIDINE-1-CARBONYL]-4-METHYL-4-[4-(OXETAN-3-YL)PIPERAZIN-1-YL]PENT-2-ENENITRILE” (priority 2023, published 2026)
